Data as given in patent US20240270821A1, “GIP/GLP1/GCG TRI-RECEPTOR AGONISTS AND USES THEREOF” (priority 2023, published 2024).
pEC50: −log10 of the molar value. Like-named read-outs stand apart in the source and are kept apart here. Starred links: 1 amine or outer side, 2 acyl side, 3 side chain; linkers in the order of their positions; H or OH if unused. Non-standard residues stand in square brackets, D forms with d. Residues, ends and D or L forms follow the SMILES beside them. Groups on a side chain read outwards from the residue. No end group written: not given here. *: point of attachment. C18 diacid = O=C(O)CCCCCCCCCCCCCCCCC(=O)*; Phe(4-CN) = N#Cc1ccc(C[C@H](N)C(=O)O)cc1; αMePhe(2-F) = C[C@](N)(Cc1ccccc1F)C(=O)O; γGlu = O=C(O)[C@H](CCC(=O)[*:2])N[*:1]; αMe4Pal = C[C@](N)(Cc1ccncc1)C(=O)O; αMeY = C[C@](N)(Cc1ccc(O)cc1)C(=O)O; 4Pal = N[C@@H](Cc1ccncc1)C(=O)O; αMeL = CC(C)C[C@](C)(N)C(=O)O; αMeS = C[C@](N)(CO)C(=O)O; Orn = NCCC[C@H](N)C(=O)O; AEEA = NCCOCCOCC(=O)O; Aib = CC(C)(N)C(=O)O

What was measured:
Assay type in all cases: cell-based
[1] = target: T1, hGIPR (Homo sapiens, UniProt P48546); experiment: Functional cAMP activation in the presence of 0.1% casein (no HSA); details: read-out: Relative cAMP EC50, hGIPR;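 note: intracellular cAMP rise after 30 min at 37 °C read by HTRF against a standard curve, scaled between buffer alone (0%) and top control ligand concentration (100%), four-parameter fit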
T1 sequence (P48546 22-466): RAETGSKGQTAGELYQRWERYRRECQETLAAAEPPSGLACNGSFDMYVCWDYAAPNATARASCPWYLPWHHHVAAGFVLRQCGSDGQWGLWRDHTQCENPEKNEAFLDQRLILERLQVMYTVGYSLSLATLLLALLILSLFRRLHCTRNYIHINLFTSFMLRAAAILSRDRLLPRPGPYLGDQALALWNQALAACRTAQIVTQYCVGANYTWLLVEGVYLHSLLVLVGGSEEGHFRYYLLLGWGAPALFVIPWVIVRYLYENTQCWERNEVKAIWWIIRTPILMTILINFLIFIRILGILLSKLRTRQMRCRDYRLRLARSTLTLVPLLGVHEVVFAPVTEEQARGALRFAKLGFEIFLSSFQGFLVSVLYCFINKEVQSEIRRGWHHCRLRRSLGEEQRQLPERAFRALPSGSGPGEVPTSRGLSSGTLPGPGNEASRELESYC

[2] = target: T2, hGLP-1R (Homo sapiens, UniProt P43220); experiment: Functional cAMP activity in the presence of 1% HSA; details: read-out: cAMP Rel EC50, hGLP-1R
T2 sequence (P43220 24-463): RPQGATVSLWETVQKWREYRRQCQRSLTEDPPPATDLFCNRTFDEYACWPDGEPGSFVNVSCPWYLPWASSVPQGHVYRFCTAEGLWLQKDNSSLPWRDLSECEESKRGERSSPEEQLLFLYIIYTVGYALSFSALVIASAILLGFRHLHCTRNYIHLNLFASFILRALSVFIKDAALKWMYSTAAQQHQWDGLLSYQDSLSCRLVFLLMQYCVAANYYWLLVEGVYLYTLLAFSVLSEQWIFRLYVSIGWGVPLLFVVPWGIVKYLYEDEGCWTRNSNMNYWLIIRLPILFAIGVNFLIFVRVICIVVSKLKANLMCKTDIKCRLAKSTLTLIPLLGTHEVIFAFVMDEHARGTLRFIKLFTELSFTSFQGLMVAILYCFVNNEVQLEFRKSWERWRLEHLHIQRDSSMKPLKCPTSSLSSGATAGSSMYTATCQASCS

[3] = target: hGcgR (Homo sapiens, UniProt P47871); experiment: Functional cAMP activation in the presence of 0.1% casein (no HSA); details: read-out: Relative cAMP EC50, hGcgR;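 note: intracellular cAMP rise after 30 min at 37 °C, read by HTRF against a cAMP standard curve, scaled from buffer only (0%) to maximal control ligand response (100%)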
Sequence of hGcgR (P47871 26-477): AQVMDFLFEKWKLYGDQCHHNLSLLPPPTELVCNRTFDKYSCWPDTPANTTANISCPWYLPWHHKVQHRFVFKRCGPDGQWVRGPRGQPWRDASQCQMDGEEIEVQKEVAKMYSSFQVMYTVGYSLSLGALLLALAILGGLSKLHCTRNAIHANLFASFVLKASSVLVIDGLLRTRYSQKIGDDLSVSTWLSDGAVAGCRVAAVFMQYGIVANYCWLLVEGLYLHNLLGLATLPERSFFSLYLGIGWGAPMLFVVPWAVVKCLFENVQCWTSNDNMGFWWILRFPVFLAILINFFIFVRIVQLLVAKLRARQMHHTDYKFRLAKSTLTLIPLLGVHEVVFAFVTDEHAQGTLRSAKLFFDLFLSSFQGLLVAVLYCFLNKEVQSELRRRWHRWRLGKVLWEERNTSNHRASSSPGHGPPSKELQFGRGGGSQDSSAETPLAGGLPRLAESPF

[4] = target: T1, hGIPR; experiment: Functional cAMP activity in the presence of 1% HSA; details: read-out: cAMP Rel EC50, hGIPR
[5] = target: T2, hGLP-1R; experiment: Functional cAMP activation in the presence of 0.1% casein (no HSA); details: read-out: Relative cAMP EC50, hGLP-1R;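 note: intracellular cAMP rise after 30 min at 37 °C read by HTRF, normalized between buffer only (0%) and maximal control ligand (100%), four-parameter variable-slope fit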
[6] = target: human GcgR (Homo sapiens, UniProt P47871); experiment: Functional cAMP activity in the presence of 1% HSA; details: read-out: cAMP Rel EC50, hGcgR
Sequence of human GcgR (P47871 26-477): as above

[7] = in the presence of 0.1% casein (no HSA), geometric mean
[8] = in the presence of 0.1% casein (no HSA), geometric mean of relative EC50
[9] = HEK-293 clonal cell line, 1% HSA, geometric mean of relative EC50

| Compound | pEC50 [1, 7] | pEC50 [2] | pEC50 [3, 7] | pEC50 [4] | pEC50 [5, 7] | pEC50 [6] | pEC50 [1] | pEC50 [3] | pEC50 [5] | pEC50 [1, 8] | pEC50 [2, 9] | pEC50 [3, 8] | pEC50 [4, 9] | pEC50 [5, 8] | pEC50 [6, 9] |
| --- | --- | --- | --- | --- | --- | --- | --- | --- | --- | --- | --- | --- | --- | --- | --- |
| CC[C@H](C)[C@H](NC(=O)[C@H](Cc1ccccc1)NC(=O)[C@H](C)NC(=O)C(C)(C)NC(=O)[C@H](CCC(N)=O)NC(=O)[C@H](C)NC(=O)[C@H](CCCCNC(=O)COCCOCCNC(=O)CC[C@H](NC(=O)CCCCCCCCCCCCCCCCC(=O)O)C(=O)O)NC(=O)[C@H](CCCCN)NC(=O)[C@H](CC(=O)O)NC(=O)[C@H](CC(C)C)NC(=O)[C@](C)(CC(C)C)NC(=O)[C@H](CCCN)NC(=O)[C@H](CO)NC(=O)[C@H](Cc1ccccc1)NC(=O)[C@H](CC(=O)O)NC(=O)[C@H](CO)NC(=O)[C@@H](NC(=O)[C@H](Cc1ccccc1)NC(=O)[C@@H](NC(=O)CNC(=O)[C@H](CCC(N)=O)NC(=O)C(C)(C)NC(=O)[C@@H](N)Cc1ccc(O)cc1)[C@@H](C)O)[C@@H](C)O)C(=O)N[C@@H](CCC(=O)O)C(=O)N[C@@H](Cc1ccc(O)cc1)C(=O)N[C@@H](CC(C)C)C(=O)N[C@@H](CC(C)C)C(=O)N[C@@H](CCC(=O)O)C(=O)N[C@H](C)C(=O)NCC(=O)N[C@@H](Cc1ccncc1)C(=O)N[C@@H](CO)C(=O)N[C@@H](CO)C(=O)NCC(=O)N[C@@H](C)C(=O)N1CCC[C@H]1C(=O)N1CCC[C@H]1C(=O)N1CCC[C@H]1C(=O)N[C@@H](CO)C(=O)NCC(=O)N[C@@H](CCC(=O)O)C(N)=O [Example 252] | 9.83 | 6.30 | 8.58 | 7.61 | 8.45 | 6.28 |  |  |  |  |  |  |  |  |  |
| Y[Aib]QGT[αMePhe(2-F)]TSD[4Pal][αMeS]I[αMeL]LD[Orn]K([γGlu-γGlu-C18 diacid])AQ[Aib]NFI[dE][αMeY]LQEGGPSSGEPPPEGTE-NH2 [Example 526] |  | 7.64 |  | 8.67 |  | 6.28 | 10.44 | 8.06 | 9.38 |  |  |  |  |  |  |
| CC[C@H](C)[C@H](NC(=O)[C@H](CC(C)C)NC(=O)[C@](C)(Cc1ccc(O)cc1)NC(=O)[C@@H](CCC(=O)O)NC(=O)[C@@H](NC(=O)[C@H](Cc1ccccc1)NC(=O)[C@H](CO)NC(=O)C(C)(C)NC(=O)[C@H](CCC(N)=O)NC(=O)[C@H](C)NC(=O)[C@H](CCCCNC(=O)CC[C@H](NC(=O)CC[C@H](NC(=O)CCCCCCCCCCCCCCCCC(=O)O)C(=O)O)C(=O)O)NC(=O)[C@H](CCCN)NC(=O)[C@H](CC(=O)O)NC(=O)[C@H](CC(C)C)NC(=O)[C@](C)(CC(C)C)NC(=O)[C@@H](NC(=O)[C@](C)(CO)NC(=O)[C@H](Cc1ccncc1)NC(=O)[C@H](CC(=O)O)NC(=O)[C@H](CO)NC(=O)[C@@H](NC(=O)[C@](C)(Cc1ccccc1F)NC(=O)[C@@H](NC(=O)CNC(=O)[C@H](CCC(N)=O)NC(=O)C(C)(C)NC(=O)[C@@H](N)Cc1ccc(O)cc1)[C@@H](C)O)[C@@H](C)O)[C@@H](C)CC)[C@@H](C)CC)C(=O)N[C@@H](CCC(=O)O)C(=O)NCC(=O)NCC(=O)N1CCC[C@H]1C(=O)N[C@@H](CO)C(=O)N[C@@H](CO)C(=O)NCC(=O)N[C@@H](CCC(=O)O)C(=O)N1CCC[C@H]1C(=O)N1CCC[C@H]1C(=O)N1CCC[C@H]1C(=O)N[C@@H](CCC(=O)O)C(N)=O [Example 436] (H-Y[Aib]QGT[αMePhe(2-F)]TSD[4Pal][αMeS]I[αMeL]LD[Orn]K([γGlu-γGlu-C18 diacid])AQ[Aib]SFI[dE][αMeY]LIEGGPSSGEPPPE-NH2; N-terminus assumed) |  | 7.93 |  | 8.93 |  | 6.74 | 10.53 | 8.64 | 9.76 |  |  |  |  |  |  |
| H-Y[Aib]QGT[αMePhe(2-F)]TSD[4Pal][αMeS]I[αMeL]LD[Orn]K([AEEA-γGlu-C18 diacid])AQ[αMe4Pal]EFI[dE][αMeY]LIEGGPSSGEPPPGGE-NH2 [Example 1145] | 11.16 | 7.41 | 8.97 | 9.07 | 9.50 | 6.83 |  |  |  |  |  |  |  |  |  |
| H-Y[Aib]QGTFTSD[4Pal]S[Orn][αMeL]LD[Orn]K([γGlu-γGlu-C18 diacid])AQ[αMe4Pal]QFIEYLIAGGPSSGAPPPSGSEE-NH2 [Example 1000] | 9.75 | 6.55 | 8.34 | 7.81 | 8.45 | 6.30 |  |  |  |  |  |  |  |  |  |
| H-Y[Aib]QGT[αMePhe(2-F)]TSD[4Pal]SI[αMeL]LD[Orn]K([AEEA-γGlu-C18 diacid])AQ[αMe4Pal]EFI[dE][αMeY]LLEGGPSSGEPPPSGS-NH2 [Example 645] |  | 7.12 |  | 9.06 |  | 6.40 | 11.14 | 8.49 | 9.22 |  |  |  |  |  |  |
| Y[Aib]QGTFTSD[4Pal]S[Orn][αMeL]LD[Orn]K([AEEA-γGlu-C18 diacid])AQ[Aib]AFIE[αMeY]LLEGGPSSGAPPPSGS-NH2 [Example 933] | 9.59 | 6.25 | 8.26 | 7.45 | 8.63 | 5.82 |  |  |  |  |  |  |  |  |  |
| H-Y[Aib]QGTFTSDFSK[αMeL]LDKK([AEEA-AEEA-γGlu-C18 diacid])AQ[Aib]AFIEYLLEGGPSSGAPPPSGS-NH2 [Example 142] | 9.67 | 6.41 | 8.46 | 7.85 | 8.36 | 5.91 |  |  |  |  |  |  |  |  |  |
| H-Y[Aib]QGT[αMePhe(2-F)]TSD[4Pal][αMeS]I[αMeL]LD[Orn]K([γGlu-γGlu-C18 diacid])AQ[Aib]NFI[dE][αMeY]LIEGGPSSGEPEPEEG-NH2 [Example 474] |  | 7.97 |  | 9.13 |  | 6.78 | 10.90 | 8.41 | 9.63 |  |  |  |  |  |  |
| Y[Aib]QGT[αMePhe(2-F)]TSD[4Pal]SI[αMeL]LD[Orn]K([AEEA-γGlu-C18 diacid])AQ[αMe4Pal]EFI[dE][αMeY]LIEGGPSSGEPPPSGS-NH2 [Example 644] |  | 7.46 |  | 9.22 |  | 6.20 | 11.19 | 8.23 | 9.51 |  |  |  |  |  |  |
| H-Y[Aib]QGTFTSD[Phe(4-CN)]S[Orn][αMeL]LDKK([AEEA-AEEA-γGlu-C18 diacid])AQ[Aib]AFIEYLLE[Aib]GPSSGAPPPSGS-NH2 [Example 178] | 9.47 | 6.40 | 8.14 | 7.33 | 8.40 | 6.09 |  |  |  |  |  |  |  |  |  |
| H-Y[Aib]QGT[αMePhe(2-F)]TSD[4Pal][αMeS]I[αMeL]LD[Orn]K([AEEA-γGlu-γGlu-C18 diacid])AQ[αMe4Pal]EFI[dE][αMeY]LIEGGPSSGAPPPSGE-NH2 [Example 1176] | 11.14 | 7.36 | 8.74 | 9.34 | 9.46 | 6.64 |  |  |  |  |  |  |  |  |  |
| H-Y[Aib]QGTFTSDFS[Orn][αMeL]LDKK([AEEA-γGlu-C18 diacid])AQ[αMe4Pal]AFIEYLIE[Aib]GPSSGAPPPSGS-NH2 [Example 811] | 9.85 | 6.61 | 9.14 | 7.59 | 8.83 | 6.76 |  |  |  |  |  |  |  |  |  |
| H-Y[Aib]QGT[αMePhe(2-F)]TSD[4Pal]SI[αMeL]LDKK([γGlu-γGlu-C18 diacid])AQ[Aib][Orn]FIEYLSEGGPSSGEPPPSGSEE-NH2 [Example 637] |  |  |  |  |  |  |  |  |  | 9.97 | 7.12 | 7.93 | 8.14 | 8.97 | 6.01 |
